Read-outs that look alike come from different tables or passages of the source.
How the values were obtained:
[1] = Pharmacokinetics after a single SC or PO dose; type: in vivo, mouse; details: for Tmax: read-out: Observed Tmax
Method: The pharmacokinetic parameters of 4b following dosing with either 5 mg/kg subcutaneous (sc) injection using the soluble formulation, or 4b per oral (po) by gavage (50 mg/kg in suspension) in mice plasma and whole brain homogenate are shown in Fig. 4 and Table 1. Triplicate dose formulation samples were retained and analyzed to ensure an accurate concentration of 4b was injected. The sc dose was calculated to be on average 84.3% of the 5 mg/kg target dose. Therefore, for PK analysis purposes, the dose level for this group was adjusted to 4.22 mg eq./kg based on the reported average dose formulation concentration and calculation parameters were adjusted accordingly. The po gavage dose was accurate at 50 mg/kg (within 104% of the nominal concentration of 10.0 mg/mL), and triplicate sampling from the vial (1 per strata; top, middle, and bottom) confirmed that the suspension dosed was homogeneous.
All dose formulation procedures were conducted under yellow lighting conditions to protect 4b from light. For the subcutaneous dose group, 2.504 mg 4b was weighed, and transferred into a formulation container. NMP (0.05 mL) was added and the contents were vortexed until 4b was completely dissolved. With continuous vortexing after each addition, PEG400 (0.45 mL), Solutol HS-15 (0.25 mL) and finally 1% Lutrol F68 in RODI water (1.75 mL) followed by sonication for 6 min. The formulation was filtered into a sterile serum vial using a 0.22 µm Millex GV PVDF filter. The resultant formulation was a clear colorless solution.
For the oral dose group, 4b was weighed (21.138 mg) and transferred to a formulation container. The prepared vehicle (0.5% CMC, 2.11 mL) was transferred into the formulation container, and the contents were stirred and sonicated for a total of 20 min. The resultant formulation was a white homogenous suspension.
Whole blood samples (225 µL each ∼90 µL plasma) were collected at each time point per animal into tubes containing K2EDTA. Samples were held on wet ice prior to centrifugation. Mice were bled twice; the first bleed was made via the submandibular facial vein, the second bleed was a terminal collection via cardiac puncture. […] The entire volume of the plasma sample was then transferred to individual tubes contained in a 96-well Matrix plate kept chilled in icy water through the entire process until storage at −70°C ±10°C. Collected plasma samples were stored at −70°C ±10°C until transferred to the analytical laboratory frozen on dry ice for bioanalysis.
The brain of each animal was collected following CO2 euthanasia and terminal bleeding. Each brain was rinsed with saline once removed from the body (to flush away any blood that may have been present), snap frozen in liquid nitrogen, and stored individually in 15 mL conical tubes at −70°C ±10°C.
Prior to extraction, acetonitrile: water (3∶1, v/v) was added to each tissue sample at a tissue: solvent ratio of 1∶3 (w/v) or 1∶2.536 (w/w), and homogenized using an OMNI tissue homogenizer. The actual volume of extraction buffer or organic solvent added to each tissue was recorded. Samples were kept chilled in icy water through the entire process until processed for 4b extraction. Immediately prior to extraction, tissue homogenates were thoroughly vortexed and aliquoted into 96-well plate(s). The entire process, from tissue homogenization to placing the samples in the tubes for 4b extraction, was conducted within 8 h.
primary stock solution was prepared at 1 mg eq./mL in DMSO. The matrix calibration standards were prepared at 1, 2, 5, 10, 50, 250, 1000, 2500, 5000 and 10000 ng eq./mL in mouse plasma for plasma, and 0.25, 0.5, 1.25, 2.5, 12.5, 62.5, 250, 625, 1250, 2500 ng eq./mL in tissue homogenate for tissue analysis. Plasma samples were quantified against an external calibration curve generated in control plasma from male C57BL/6NCRL mice. Tissue samples were quantified against an external calibration standard curve generated in control brain tissue from male C57BL/6NCRL mice. […]

[2] = test system: P-glycoprotein (Pgp, MDR1); test: Effective efflux ratio in MDR1-MDCK cells; type: in vitro ADME; details: human, pH 7.4; MDCK overexpressing MDR1
Method: The MDR1-MDCKII and wild type MDCKII cell lines (obtained from SOLVO Biotechnology) were cultured in accordance with the guidelines provided by SOLVO Biotechnology. Both wild-type MDCK and MDR1-MDCK cells were seeded at a cell density of 2.3×10^5 cells/well into 24-well Transwell plates and cultured for three days to form monolayers. Test compound was loaded into the donor compartments of the Transwell plate (24-well) bearing MDR1-MDCK or wild type MDCK monolayers. Test compound was added to either the apical or basolateral chambers of the Transwell plate assembly at a concentration of 10 µM in Hanks’ Balanced Salt Solution containing 25 mM HEPES (pH 7.4). Lucifer Yellow was added to the apical buffer in all wells and its permeation monitored to assess integrity of the cell layer. […]
After 1 h incubation at 37°C, aliquots were taken from both chambers and added to acetonitrile containing analytical internal standard (carbamazepine) in a 96-well plate. Concentrations of compound in the samples were measured by LC-MS/MS. Concentrations of LY in the samples were measured using a fluorescence plate reader.
The apparent permeability (Papp) values of test compound were determined for both the apical to basal (A>B) and basal to apical (B>A) permeation and the efflux ratio (B>A: A>B) determined in both the wild type MDCK and MDR1-MDCK cells. […]

[3] = C57BL/6NCRL, mouse, brain/plasma, po 50 mg eq./kg, mean (standard deviation), N = 3, read-out: B:P
[4] = C57BL/6NCRL, mouse, brain/plasma, sc 4.22 mg eq./kg, mean (standard deviation), N = 3, read-out: B:P

Structure (SMILES): Nc1ccccc1NC(=O)CCCCCC(=O)Nc1ccccc1 [Compound 4b]
- brain concentration in the acute sc pharmacodynamic trial, fold higher than by oral dosing ([1]; 150 mg/kg): ~65 fold
- AUC(0-inf) ([1]; C57BL/6NCRL, mouse, 4.22 mg/kg, mice, SC 4.22 mg eq./kg, plasma): 1.63 µM·h
- half-life ([1]; C57BL/6NCRL, mouse, 4.22 mg/kg, mice, SC 4.22 mg eq./kg, plasma, read-out: T1/2 (converted)): 39.6 min
- AUC(0-inf) ([1]; C57BL/6NCRL, mouse, 50 mg/kg, mice, PO 50 mg eq./kg, brain): 0.129 µM·h
- half-life ([1]; C57BL/6NCRL, mouse, 50 mg/kg, mice, PO 50 mg eq./kg, brain, read-out: T1/2 (converted)): 182 min
- AUC(0-inf) ([1]; C57BL/6NCRL, mouse, 50 mg/kg, mice, PO 50 mg eq./kg, plasma): 1.08 µM·h
- half-life ([1]; C57BL/6NCRL, mouse, 50 mg/kg, mice, PO 50 mg eq./kg, plasma, read-out: T1/2 (converted)): 166 min
- Cmax ([1]; C57BL/6NCRL, mouse, brain, po, 50 mg/kg, mice, PO 50 mg eq./kg, brain, read-out: Observed Cmax): 24 nM
- Tmax ([1]; C57BL/6NCRL, mouse, brain, po, 50 mg/kg, mice, PO 50 mg eq./kg, brain): 60 min
- Cmax ([1]; C57BL/6NCRL, mouse, brain, sc, 4.22 mg/kg, mice, SC 4.22 mg eq./kg, brain, read-out: Observed Cmax): 134 nM
- Tmax ([1]; C57BL/6NCRL, mouse, brain, sc, 4.22 mg/kg, mice, SC 4.22 mg eq./kg, brain): 30 min
- Kp at 0.5 hr [1, 3]: 0.05
- Kp at 1 hr [1, 3]: 0.08
- Kp at 8 hr ([1]; C57BL/6NCRL, mouse, brain/plasma, po 50 mg eq./kg, 8 hr, mean (standard deviation), N = 3, read-out: B:P): 0.2
- Kp at 0.5 hr [1, 4]: 0.09
- Kp at 1 hr [1, 4]: 0.06
- AUC ([1]; C57BL/6NCRL, mouse, plasma, 50 mg/kg, mice, po 50 mg eq/kg): 1.08 µM·h
- Cmax ([1]; C57BL/6NCRL, mouse, plasma, po, 50 mg/kg, mice, PO 50 mg eq./kg, plasma, read-out: Observed Cmax): 1130 nM
- Tmax ([1]; C57BL/6NCRL, mouse, plasma, po, 50 mg/kg, mice, PO 50 mg eq./kg, plasma): ≤ 30 min
- Cmax ([1]; C57BL/6NCRL, mouse, plasma, po, 50 mg/kg, mice, po 50 mg eq/kg, read-out: plasma Cmax): 1300 nM
- half-life ([1]; C57BL/6NCRL, mouse, plasma, sc, 4.22 mg eq./kg, after subcutaneous dosing, read-out: plasma half-life): ~40 min
- Cmax ([1]; C57BL/6NCRL, mouse, plasma, sc, 4.22 mg/kg, mice, SC 4.22 mg eq./kg, plasma, read-out: Observed Cmax): 1340 nM
- Tmax ([1]; C57BL/6NCRL, mouse, plasma, sc, 4.22 mg/kg, mice, SC 4.22 mg eq./kg, plasma): ≤ 30 min
- Cmax ([1]; C57BL/6NCRL, mouse, plasma, sc, 4.22 mg/kg, mice, sc 4.22 mg/kg, read-out: plasma Cmax): 1340 nM
- AUC ([1]; C57BL/6NCRL, mouse, plasma, mice, sc 4.22 mg/kg): 1.63 µM·h
- estimated brain Cmax ([1]; extrapolated to 150 mg/kg s.c., assuming linear kinetics): 4 to 5 µM
- estimated brain Cmax ([1]; extrapolated to oral bolus of 150 mg/kg): ~0.072 µM
- Cmax ([1]; mice, PO 50 mg eq./kg, brain, read-out: Observed Cmax): 24.3 nM
- brain concentration (below LLQ) ([1]; po 50 mg/kg, after 8 h): < 2.3 nM eq.
- plasma concentration (below LLQ) ([1]; po 50 mg/kg, after 8 h): < 3.07 nM eq.
- plasma concentration (below LLQ) ([1]; sc 4.22 mg/kg eq, after 4 h): < 3.07 nM eq.
- brain concentration (below LLQ) ([1]; sc 4.22 mg/kg eq, after 8 h): < 2.3 nM eq.
- efflux ratio at 1 h, 10 µM [2]: 4.9

Reference: article PMC3433414, “Oral Administration of the Pimelic Diphenylamide HDAC Inhibitor HDACi 4b Is Unsuitable for Chronic Inhibition of HDAC Activity in the CNS In Vivo” (PLoS ONE, 2012)
